Data on 24 molecules can be found in patent US8138205B2, “Heteroarylalkoxy-substituted quinolone inhibitors of PDE4” (Kalypsys, Inc., priority 2006, dated 2012).

One data set can be described thus: Solubility Protocol. The settings on record: aqueous buffer, thermodynamic from solid; pH 7.4, 0.1 M sodium phosphate buffer. It counts as physicochemical. The procedure: About 5 mg of a compound was mixed with 500 μL of pH 7.4, 0.1 M sodium phosphate buffer. The mixture was adjusted to the original pH of 7.4 and then mixed overnight or longer via rotary mixing. The sample was checked for pH and then filtered through a 0.45 μm filter. If the pH drifted away, the sample was adjusted to its original pH and mixed for at least 15 minutes before filtration. The filtrate was analyzed using HPLC.

The next data set has as its target T1, PDE4B (Homo sapiens, UniProt Q07343).
T1 construct: hex-histidine (His6) (N); made in house
Nature of the data set: PDE/AK Biological Activity Assay (coupled PDE/adenylate kinase bioluminescent assay). It counts as biochemical. The conditions noted are these: catalytic domain of PDE4B, read-out: PDE4 Enzyme IC50. The source says: Phosphodiesterases regulate the activity of the second messenger cyclic adenosine monophosphate (cAMP) by hydrolyzing cAMP to adenosine monophosphate (AMP). We developed a coupled PDE/AK bioluminescent high-throughput assay to measure the activity of phosphodiesterases. In the PDE/AK assay, the AMP produced from the hydrolysis of cAMP by phosphodiesterase is converted to adenosine diphosphate (ADP) by the phosphotransferase activity of adenylate kinase (also known as ADK or myokinase). Adenylate kinase will catalyze the conversion of 1 mole of AMP and 1 mole of ATP into 2 moles of ADP. Thus the conversion of AMP to ADP will result in the subsequent loss of ATP. The decrease in ATP concentration can be monitored as light output using luciferase in a reaction that requires ATP to produce light. The PDE/AK assay uses luciferase, which catalyzes the production of light from ATP present in the reaction mix. The amount of emitted light is inversely proportional to the level of AMP present in the reaction. Test compounds are incubated with the phosphodiesterases and phosphodiesterase inhibitors will decrease the rate of cAMP hydrolysis and decrease the subsequent production of AMP. Thus phosphodiesterase inhibitors will decrease the conversion of ATP to ADP and result in the greatest emission of light.
Compounds may be screened for functional potency in in vitro biochemical assays for their ability to inhibit the activity of phosphodiesterase (PDE) enzymes. A coupled PDE/AK assay was utilized to measure the inhibitory activity of compounds on PDE isoforms. The catalytic domain of PDE4B was fused to an amino-terminus hex-histidine affinity tag and purified. PDE4B enzyme was incubated with compounds for 10 minutes. Cyclic AMP substrate, ATP and adenylate kinase were then added to the PDE enzyme mix and incubated for 45 minutes at room temperature. A commercial ATP detection assay, Perkin Elmer's easyLite ATP detection reagent, was then added to measure the relative amount of ATP present in the reaction. After 10 minute incubation, the luminescent signal was quantitated with either the Perkin Elmer Viewlux or Molecular Devices Acquest or Analyst. Roflumilast and Rolipram are the positive controls used in the assay.

SMILES strings stand for the structures.

T1 sequence (Q07343 330-659 limits assumed, species assumed): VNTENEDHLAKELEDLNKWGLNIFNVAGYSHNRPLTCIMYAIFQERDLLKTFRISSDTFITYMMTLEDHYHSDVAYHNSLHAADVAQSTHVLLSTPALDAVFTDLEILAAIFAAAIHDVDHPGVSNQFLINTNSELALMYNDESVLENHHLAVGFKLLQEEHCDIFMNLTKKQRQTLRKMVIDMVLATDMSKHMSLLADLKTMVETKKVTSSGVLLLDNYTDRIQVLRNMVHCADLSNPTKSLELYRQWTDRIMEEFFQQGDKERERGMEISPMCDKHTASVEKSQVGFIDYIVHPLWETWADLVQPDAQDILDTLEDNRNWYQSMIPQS

Molecule `COc1ccc2c(Nc3c(Cl)cncc3Cl)cc(=O)[nH]c2c1OCCCCCCN(C)CCO` [Example 30, 4-(3,5-Dichloropyridin-4-ylamino)-8-(6-((2-hydroxyethyl)(methyl)amino)hexyloxy)-7-methoxyquinolin-2(1H)-one] had a solubility in the data set “Solubility Protocol” of no less than 1000 µg/mL. Moreover, the IC50 on PDE4B is less than 1 µM.

As for `COCCOCCOCCCOc1c(OC)ccc2c(Nc3c(Cl)cncc3Cl)cc(=O)[nH]c12` [Example 70, 4-(3,5-dichloropyridin-4-ylamino)-7-methoxy-8-(3-(2-(2-methoxyethoxy)ethoxy)propoxy)quinolin-2(1H)-one], the solubility in the data set “Solubility Protocol” is no less than 1000 µg/mL. Also, the IC50 on PDE4B is less than 1 µM.

Turning to `COc1ccc2c(Nc3c(C)cncc3C)cc(=O)[nH]c2c1OCCCCC(=O)O` [Example 72, 5-(4-(3,5-dimethylpyridin-4-ylamino)-7-methoxy-2-oxo-1,2-dihydroquinolin-8-yloxy)pentanoic acid], the solubility in the data set “Solubility Protocol” is no less than 1000 µg/mL. In addition, at PDE4B, the IC50 was less than 1 µM.

In the case of `COc1ccc2c(Nc3c(Cl)cncc3Cl)cc(=O)[nH]c2c1OCCCc1nn[nH]n1` [Example 67, 8-(3-(2H-tetrazol-5-yl)propoxy)-4-(3,5-dichloropyridin-4-ylamino)-7-methoxyquinolin-2(1H)-one], in “Solubility Protocol”, the solubility is no less than 1000 µg/mL. Besides, at PDE4B, the IC50 is less than 1 µM.

In the case of `COc1ccc2c(Nc3c(Cl)cncc3Cl)cc(=O)[nH]c2c1OCCCCCCN1CCCN(C)CC1` [Example 26, 4-(3,5-Dichloropyridin-4-ylamino)-7-methoxy-8-(6-(4-methyl-1,4-diazepan-1-yl)hexyloxy)quinolin-2(1H)-one], the solubility in the data set “Solubility Protocol” was no less than 1000 µg/mL. The IC50 on PDE4B is less than 1 µM.

`COc1ccc2c(Nc3c(C)cncc3C)cc(=O)[nH]c2c1OCCCCCCn1ccnc1` [Example 80, 8-(6-(1H-imidazol-1-yl)hexyloxy)-4-(3,5-dimethylpyridin-4-ylamino)-7-methoxyquinolin-2(1H)-one] yielded a solubility in “Solubility Protocol” of no less than 1000 µg/mL. In addition, the half-maximal inhibitory concentration (IC50) on PDE4B was less than 1 µM.

For `COc1ccc2c(Nc3c(C)cncc3C)cc(=O)[nH]c2c1OCCCCCCCC(=O)O` [Example 75, 8-(4-(3,5-dimethylpyridin-4-ylamino)-7-methoxy-2-oxo-1,2-dihydroquinolin-8-yloxy)octanoic acid], the solubility in the data set “Solubility Protocol” was no less than 1000 µg/mL. The IC50 at PDE4B was less than 1 µM.

For the molecule `COc1ccc2c(Nc3c(C)cncc3C)cc(=O)[nH]c2c1OCCCCCCN1CCCC1` [Example 37, 4-(3,5-Dimethylpyridin-4-ylamino)-7-methoxy-8-(6-(pyrrolidin-1-yl)hexyloxy)quinolin-2(1H)-one], in the data set “Solubility Protocol”, the solubility was no less than 1000 µg/mL. Further, at PDE4B, the concentration for half-maximal inhibition (IC50) is less than 1 µM.

`COc1ccc2c(Nc3c(Cl)cncc3Cl)cc(=O)[nH]c2c1OCCCCCCN(C)CCCO` [Example 33, 4-(3,5-Dichloropyridin-4-ylamino)-8-(6-((3-hydroxypropyl)(methyl)amino)hexyloxy)-7-methoxyquinolin-2(1H)-one] displayed a solubility in “Solubility Protocol” of no less than 1000 µg/mL. In addition, on PDE4B, the 50% inhibitory concentration (IC50) was less than 1 µM.

In turn, `COc1ccc2c(Nc3c(Cl)cncc3Cl)cc(=O)[nH]c2c1OCCCCCCN(C)CCCN(C)C` [Example 27, 4-(3,5-Dichloropyridin-4-ylamino)-8-(6-((3-(dimethylamino)propyl)(methyl)amino)hexyloxy)-7-methoxyquinolin-2(1H)-one] gave a solubility in “Solubility Protocol” of no less than 1000 µg/mL. Also, the IC50 on PDE4B is less than 1 µM.

The molecule `COc1ccc2c(Nc3c(Cl)cncc3Cl)cc(=O)[nH]c2c1OCCCCO` [Example 41, 4-(3,5-dichloropyridin-4-ylamino)-8-(4-hydroxybutoxy)-7-methoxyquinolin-2(1H)-one] displayed a solubility in “Solubility Protocol” of no less than 1000 µg/mL. Moreover, the half-maximal inhibitory concentration (IC50) on PDE4B is less than 1 µM.

For the molecule `COc1ccc2c(Nc3c(Cl)cncc3Cl)cc(=O)[nH]c2c1OCCCCc1nn[nH]n1` [Example 68, 8-(4-(2H-tetrazol-5-yl)butoxy)-4-(3,5-dichloropyridin-4-ylamino)-7-methoxyquinolin-2(1H)-one], the solubility in “Solubility Protocol” is no less than 1000 µg/mL. For the same molecule, on PDE4B, the concentration for half-maximal inhibition (IC50) was less than 1 µM.

Molecule `COc1ccc2c(Nc3c(C)cncc3C)cc(=O)[nH]c2c1OCCCCCCCCC(=O)O` [Example 76, 9-(4-(3,5-dimethylpyridin-4-ylamino)-7-methoxy-2-oxo-1,2-dihydroquinolin-8-yloxy)nonanoic acid] returned a solubility in “Solubility Protocol” of less than 1000 µg/mL. At PDE4B, the concentration for half-maximal inhibition (IC50) was less than 1 µM.

As to `COc1ccc2c(Nc3c(C)cncc3C)cc(=O)[nH]c2c1OCCCCCCN1CCCCC1` [Example 36, 4-(3,5-Dimethylpyridin-4-ylamino)-7-methoxy-8-(6-(piperidin-1-yl)hexyloxy)quinolin-2(1H)-one], the solubility in the data set “Solubility Protocol” was no less than 1000 µg/mL. Further, the IC50 at PDE4B is less than 1 µM.

For `COc1ccc2c(Nc3c(Cl)cncc3Cl)cc(=O)[nH]c2c1OCCCCCCNCCCO` [Example 32, 4-(3,5-Dichloropyridin-4-ylamino)-8-(6-(3-hydroxypropylamino)hexyloxy)-7-methoxyquinolin-2(1H)-one], in “Solubility Protocol”, the solubility is no less than 1000 µg/mL. Moreover, the half-inhibitory concentration (IC50) on PDE4B was less than 1 µM.

In the case of `COc1ccc2c(Nc3c(Cl)cncc3Cl)cc(=O)[nH]c2c1OCC(N)=O` [Example 50, 2-(4-(3,5-dichloropyridin-4-ylamino)-7-methoxy-2-oxo-1,2-dihydroquinolin-8-yloxy)acetamide], the solubility in the data set “Solubility Protocol” was no less than 1000 µg/mL. For the same molecule, the IC50 on PDE4B was less than 1 µM.

`COc1ccc2c(Nc3c(Cl)cncc3Cl)cc(=O)[nH]c2c1OCCCCCO` [Example 42, 4-(3,5-dichloropyridin-4-ylamino)-8-(5-hydroxypentyloxy)-7-methoxyquinolin-2(1H)-one] came in with a solubility in “Solubility Protocol” of no less than 1000 µg/mL. The IC50 on PDE4B was less than 1 µM.

Turning to `COc1ccc2c(Nc3c(Cl)cncc3Cl)cc(=O)[nH]c2c1OCCCn1ccnc1` [Example 62, 8-(3-(1H-imidazol-1-yl)propoxy)-4-(3,5-dichloropyridin-4-ylamino)-7-methoxyquinolin-2(1H)-one], in the data set “Solubility Protocol”, the solubility is no less than 1000 µg/mL. Also, the half-maximal inhibitory concentration (IC50) at PDE4B was less than 1 µM.

As to `COc1ccc2c(Nc3c(Cl)cncc3Cl)cc(=O)[nH]c2c1OCCCCCCN1CCCNCC1` [Example 25, 8-(6-(1,4-Diazepan-1-yl)hexyloxy)-4-(3,5-dichloropyridin-4-ylamino)-7-methoxyquinolin-2(1H)-one], the solubility in “Solubility Protocol” was no less than 1000 µg/mL. Also, the half-maximal inhibitory concentration (IC50) at PDE4B is less than 1 µM.

For the molecule `COc1ccc2c(Nc3c(C)cncc3C)cc(=O)[nH]c2c1OCCCCCC(=O)O` [Example 73, 6-(4-(3,5-dimethylpyridin-4-ylamino)-7-methoxy-2-oxo-1,2-dihydroquinolin-8-yloxy)hexanoic acid], the solubility in “Solubility Protocol” is no less than 1000 µg/mL. The half-maximal inhibitory concentration (IC50) at PDE4B was less than 1 µM.

In “Solubility Protocol”, `COc1ccc2c(Nc3c(Cl)cncc3Cl)cc(=O)[nH]c2c1OCCCCCCCCC(=O)O` [Example 55, 9-(4-(3,5-dichloropyridin-4-ylamino)-7-methoxy-2-oxo-1,2-dihydroquinolin-8-yloxy)nonanoic acid] gave a solubility of no less than 1000 µg/mL. The half-inhibitory concentration (IC50) at PDE4B is less than 1 µM.

In turn, `COc1ccc2c(Nc3c(Cl)cncc3Cl)cc(=O)[nH]c2c1OCCCCC(=O)N[C@@H](CC(=O)O)C(=O)O` [Example 66, (S)-2-(5-(4-(3,5-dichloropyridin-4-ylamino)-7-methoxy-2-oxo-1,2-dihydroquinolin-8-yloxy)pentanamido)succinic acid] came in with a solubility in “Solubility Protocol” of no less than 1000 µg/mL. The IC50 on PDE4B was less than 1 µM.

In “Solubility Protocol”, `COc1ccc2c(Nc3c(Cl)cncc3Cl)cc(=O)[nH]c2c1OCCCCCN1CCOCC1` [Example 49, 4-(3,5-dichloropyridin-4-ylamino)-7-methoxy-8-(5-morpholinopentyloxy)quinolin-2(1H)-one] had a solubility of no less than 1000 µg/mL. In addition, the half-inhibitory concentration (IC50) on PDE4B was less than 1 µM.

As for `COc1ccc2c(Nc3c(C)cncc3C)cc(=O)[nH]c2c1OCCCCCN(C)C` [Example 45, 8-(5-(dimethylamino)pentyloxy)-4-(3,5-dimethylpyridin-4-ylamino)-7-methoxyquinolin-2(1H)-one], in the data set “Solubility Protocol”, the solubility is no less than 1000 µg/mL. The IC50 on PDE4B is less than 1 µM.

The term solubility denotes the dissolved amount per volume that the medium holds. In general, IC50 refers to the concentration at which inhibition is half-maximal.
